Where “and” joins values, the source holds several entries; their conditions need not be identical. Equal values may be shown once. Toxic doses and inconclusive results are not listed. Rule for the calls: active = survival T/C of 150% or more; inactive = T/C below 125% in these data.
Tested on: CD2F1 mice, L1210 leukemia ip, survival T/C
Test: NCI In Vivo Anticancer Drug Screen. Data for tumor model L1210 Leukemia (intraperitoneal) in CD2F1 (CDF1) mice
Details: endpoint: mean survival time, higher = longer survival
Summary of the method: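 Tumor-bearing mice (transplanted tumor) were split into treated and vehicle control groups, and the measured endpoint of each treated group was divided by that of its vehicle controls.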

[1] = dose: 100.0 mg/kg/injection, schedule: Q01DX009 (ip), vehicle: saline with Tween-80
[2] = dose: 100.0 mg/kg/injection, schedule: Q04DX003 (ip), vehicle: saline with Tween-80
[3] = dose: 200.0 mg/kg/injection, schedule: Q01DX009 (ip), vehicle: saline with Tween-80
[4] = dose: 200.0 mg/kg/injection, schedule: Q04DX003 (ip), vehicle: saline with Tween-80
[5] = dose: 400.0 mg/kg/injection, schedule: Q04DX003 (ip), vehicle: saline with Tween-80
[6] = dose: 0.5 mg/kg/injection, schedule: Q01DX009 (ip), vehicle: water
[7] = dose: 1.0 mg/kg/injection, schedule: Q01DX009 (ip), vehicle: saline
[8] = dose: 1.0 mg/kg/injection, schedule: Q01DX009 (ip), vehicle: water
[9] = dose: 2.0 mg/kg/injection, schedule: Q01DX009 (ip), vehicle: saline
[10] = dose: 4.0 mg/kg/injection, schedule: Q01DX009 (ip), vehicle: saline
[11] = dose: 8.0 mg/kg/injection, schedule: Q01DX009 (ip), vehicle: saline
[12] = dose: 8.0 mg/kg/injection, schedule: Q01DX009 (ip), vehicle: water
[13] = dose: 25.0 mg/kg/injection, schedule: Q01DX009 (ip), vehicle: saline with Tween-80
[14] = dose: 50.0 mg/kg/injection, schedule: Q01DX009 (ip), vehicle: saline with Tween-80
[15] = dose: 100.0 mg/kg/injection, schedule: Q01DX001 (ip), vehicle: saline with Tween-80
[16] = dose: 100.0 mg/kg/injection, schedule: Q04DX002 (ip), vehicle: saline with Tween-80
[17] = dose: 200.0 mg/kg/injection, schedule: Q01DX001 (ip), vehicle: saline with Tween-80
[18] = dose: 200.0 mg/kg/injection, schedule: Q04DX002 (ip), vehicle: saline with Tween-80
[19] = dose: 400.0 mg/kg/injection, schedule: Q01DX001 (ip), vehicle: saline with Tween-80
[20] = dose: 400.0 mg/kg/injection, schedule: Q04DX002 (ip), vehicle: saline with Tween-80
[21] = dose: 100.0 mg/kg/injection, schedule: Q01DX009 (ip), vehicle: saline
[22] = dose: 200.0 mg/kg/injection, schedule: Q01DX009 (ip), vehicle: saline
[23] = dose: 400.0 mg/kg/injection, schedule: Q01DX009 (ip), vehicle: saline
[24] = dose: 400.0 mg/kg/injection, schedule: Q01DX009 (ip), vehicle: saline with Tween-80
[25] = dose: 100.0 mg/kg/injection, schedule: Q01DX001 (ip), vehicle: saline
[26] = dose: 200.0 mg/kg/injection, schedule: Q01DX001 (ip), vehicle: saline
[27] = dose: 400.0 mg/kg/injection, schedule: Q01DX001 (ip), vehicle: saline
[28] = dose: 25.0 mg/kg/injection, schedule: Q04DX002 (ip), vehicle: saline with Tween-80
[29] = dose: 50.0 mg/kg/injection, schedule: Q04DX002 (ip), vehicle: saline with Tween-80

Measured: T/C

COC(=O)c1cccc(C)c1O
inactive: [1] 102 % of control | [2] 97 % of control | [3] 98 % of control | [4] 96 % of control | [5] 93 % of control

Nc1nc(Cl)c2[nH]cnc2n1
active: dose: 13.3 mg/kg/injection, schedule: Q01DX009 (ip), vehicle: saline with Tween-80 153 % of control | dose: 44.0 mg/kg/injection, schedule: Q01DX009 (ip), vehicle: saline with Tween-80 151 % of control and 154 % of control | dose: 60.0 mg/kg/injection, schedule: Q04DX003 (ip), vehicle: saline with Tween-80 181 % of control | dose: 75.0 mg/kg/injection, schedule: Q04DX003 (ip), vehicle: saline with Tween-80 160 % of control | dose: 150.0 mg/kg/injection, schedule: Q04DX003 (ip), vehicle: saline with Tween-80 156 % of control and 168 % of control
inactive: dose: 66.0 mg/kg/injection, schedule: Q01DX009 (ip), vehicle: saline with Tween-80 100 % of control | dose: 88.0 mg/kg/injection, schedule: Q01DX009 (ip), vehicle: saline with Tween-80 116 % of control | [1] 111 % of control | dose: 132.0 mg/kg/injection, schedule: Q01DX009 (ip), vehicle: saline with Tween-80 113 % of control | dose: 150.0 mg/kg/injection, schedule: Q01DX009 (ip), vehicle: saline with Tween-80 86 % of control | [4] 122 % of control | dose: 300.0 mg/kg/injection, schedule: Q01DX009 (ip), vehicle: saline with Tween-80 111 % of control

CC(=O)COc1cccc(C)c1
inactive: [2] 100 % of control | [4] 103 % of control | [5] 93 % of control

COc1cccc2c1C(=O)c1c(O)c3c(c(O)c1C2=O)C[C@@](O)(C(C)=O)C[C@@H]3OC1CC(N(C)C)C(O)C(C)O1 (some centres not stated)
inactive: dose: 0.25 mg/kg/injection, schedule: Q01DX009 (ip), vehicle: saline 109 % of control | dose: 0.5 mg/kg/injection, schedule: Q01DX009 (ip), vehicle: saline 120 % of control and 111 % of control | [6] 110 % of control | [7] 105 % of control | [8] 119 % of control | [9] 102 % of control | [11] 88 % of control and 103 % of control | [12] 88 % of control
active: [10] 161 % of control

COc1ccc(NCC(=O)O)c([N+](=O)[O-])c1
inactive: [2] 91 % of control | [4] 101 % of control

CC1=CCC(C(C)(C)c2ccc(O)cc2)CC1 (configuration not stated)
inactive: [13] 94 % of control | [14] 110 % of control | [1] 98 % of control | [2] 90 % of control | [3] 96 % of control | [4] 104 % of control | [5] 90 % of control

COc1cc(C=O)ccc1OC(=O)Nc1cc([N+](=O)[O-])ccc1Cl
inactive: [14] 98 % of control and 102 % of control | [15] 93 % of control | [16] 92 % of control and 102 % of control | [2] 93 % of control | [17] 108 % of control | [18] 91 % of control and 92 % of control | [4] 107 % of control | [19] 96 % of control | [20] 88 % of control and 96 % of control | [5] 100 % of control

O=C(O)C(O)C(O)C(O)C(O)C(O)CO (configuration not stated)
inactive: [21] 98 % of control | [22] 98 % of control | [23] 97 % of control

COC(=O)C1=C(C)NC(=O)NC1c1ccccc1 (configuration not stated)
inactive: [1] 95 % of control | [3] 97 % of control | [24] 97 % of control

Nc1ncnc2c1ncn2C1OCC(O)C(O)C1O (configuration not stated)
inactive: dose: 50.0 mg/kg/injection, schedule: Q01DX001 (ip), vehicle: saline 101 % of control | [25] 102 % of control | [26] 101 % of control | [27] 98 % of control

CCCCCCCCCCOc1ccc(Cl)cc1Cl
inactive: [16] 101 % of control | [18] 101 % of control | [20] 90 % of control

CCCOC(=O)c1ccc(N2N=C(C)CCC2=O)cc1
inactive: [28] 97 % of control | [29] 102 % of control | [16] 97 % of control

CN1CSC(=S)N(Cc2ccccc2)C1
inactive: [1] 93 % of control | [3] 93 % of control | [24] 93 % of control

c1ccc2c(c1)[nH]c1nc3ccncc3nc12
inactive: dose: 50.0 mg/kg/injection, schedule: Q01DX009 (ip), vehicle: saline 96 % of control | [21] 104 % of control | [22] 95 % of control

O=C(O)C1CCN1C1CCCCC1 (configuration not stated)
inactive: [21] 98 % of control | [2] 103 % of control | [22] 100 % of control | [4] 103 % of control | [23] 98 % of control | [5] 100 % of control

Cc1c(N)nc(C(CC(N)=O)NCC(N)C(N)=O)nc1C(=O)NC(C(=O)NC(C)C(O)C(C)C(=O)NC(C(=O)NCCc1nc(-c2nc(C(=O)NCCCNC(C)c3ccccc3)cs2)cs1)C(C)O)C(OC1OC(CO)C(O)C(O)C1OC1OC(CO)C(O)C(OC(N)=O)C1O)c1cnc[nH]1 (configuration not stated)
inactive: dose: 0.25 mg/kg/injection, schedule: Q01DX009 (ip), vehicle: water 100 % of control | [6] 103 % of control and 105 % of control | [7] 103 % of control | [8] 123 % of control and 98 % of control | [9] 106 % of control | dose: 2.0 mg/kg/injection, schedule: Q01DX009 (ip), vehicle: water 104 % of control and 109 % of control | [10] 104 % of control | dose: 4.0 mg/kg/injection, schedule: Q01DX009 (ip), vehicle: water 113 % of control and 102 % of control | [11] 106 % of control | [12] 109 % of control | dose: 16.0 mg/kg/injection, schedule: Q01DX009 (ip), vehicle: saline 101 % of control | dose: 16.0 mg/kg/injection, schedule: Q01DX009 (ip), vehicle: water 113 % of control | dose: 32.0 mg/kg/injection, schedule: Q01DX009 (ip), vehicle: saline 89 % of control

COc1ccc(SSc2ccc(OC)cc2)cc1
inactive: [25] 100 % of control | [26] 103 % of control | [27] 97 % of control

Nc1c2ccccc2c[n+]2ccccc12
inactive: dose: 12.5 mg/kg/injection, schedule: Q04DX003 (ip), vehicle: saline 112 % of control | dose: 25.0 mg/kg/injection, schedule: Q04DX003 (ip), vehicle: saline 124 % of control | dose: 50.0 mg/kg/injection, schedule: Q04DX003 (ip), vehicle: saline 114 % of control | dose: 100.0 mg/kg/injection, schedule: Q04DX003 (ip), vehicle: saline 121 % of control

CCCCOC(=O)c1ccccc1Cl
inactive: dose: 50.0 mg/kg/injection, schedule: Q04DX003 (ip), vehicle: Klucel (hydroxypropylcellulose) (HPC) 94 % of control | dose: 100.0 mg/kg/injection, schedule: Q04DX003 (ip), vehicle: Klucel (hydroxypropylcellulose) (HPC) 100 % of control | dose: 200.0 mg/kg/injection, schedule: Q04DX003 (ip), vehicle: Klucel (hydroxypropylcellulose) (HPC) 102 % of control

CNC(=O)Nc1ccc(OS(=O)(=O)N(C)C)cc1
inactive: [2] 101 % of control | [4] 101 % of control | [5] 101 % of control

NC(=O)c1cc2c(N)[nH]nc2nc1N
inactive: dose: 6.25 mg/kg/injection, schedule: Q01DX009 (ip), vehicle: saline with Tween-80 97 % of control | dose: 6.25 mg/kg/injection, schedule: Q04DX003 (ip), vehicle: saline with Tween-80 94 % of control | dose: 12.5 mg/kg/injection, schedule: Q01DX009 (ip), vehicle: saline with Tween-80 103 % of control | dose: 12.5 mg/kg/injection, schedule: Q04DX003 (ip), vehicle: saline with Tween-80 97 % of control | [13] 92 % of control | dose: 25.0 mg/kg/injection, schedule: Q04DX003 (ip), vehicle: saline with Tween-80 92 % of control

Cc1cc(F)ccc1NC(=O)Nc1ccc(F)cc1C
inactive: [28] 87 % of control | [29] 87 % of control

O=C(Nc1ccc([N+](=O)[O-])cc1Cl)OCCc1ccccn1
inactive: [14] 90 % of control | [15] 98 % of control | [2] 93 % of control | [17] 95 % of control | [4] 95 % of control | [19] 93 % of control | [5] 90 % of control

Source: PubChem BioAssay AID256 (DTP/NCI, 2004)
